From paper PMC6482079 (European journal of pharmaceutical sciences : official …, 2019)

Tests used:
Experiment in all cases: microbe, parasite or virus in culture
Type in all cases: cell-based, influenza A virus
Conditions in all cases: for Drug sensitivity: sensitivity of the strain to the named drug
[1] = test system: A/North Carolina/39/2009 (H1N1)
[2] = test system: A/Denmark/528/2009 (H1N1)
[3] = test system: A/Texas/04/2009 (H1N1)
[4] = test system: A/Switzerland/9715293/2013 (H3N2)
[5] = test system: A/WSN/1933 (H1N1)
[6] = test system: A/California/07/2009 (H1N1)
[7] = test system: A/Washington/29/2009 (H1N1)

Compound	Drug sensitivity [1]	Drug sensitivity [2]	Drug sensitivity [3]	Drug sensitivity [4]	Drug sensitivity [5]	Drug sensitivity [6]	Drug sensitivity [7]	other results
CCC(CC)O[C@@H]1C=C(C(=O)O)C[C@H](N)[C@H]1NC(C)=O [Oseltamivir carboxylate]	Amantadine Resistant Oseltamivir Resistant	Amantadine Resistant Oseltamivir Resistant	Amantadine Resistant Oseltamivir Resistant	Sensitive	Sensitive	Sensitive	Amantadine Resistant Oseltamivir Resistant	
Cc1cc(OCc2nnc(SC3CCCC3)n2-c2cccnc2)ccc1-c1ccc(S(C)(=O)=O)cc1 [NMS-873]								SI (selectivity index) ([1]; CC50/EC50): 78; EC50 ([1]; Influenza A virus, H1N1, MDCK): 35 ± 5 nM; SI (selectivity index) ([2]; CC50/EC50): 70; EC50 ([2]; Influenza A virus, H1N1, MDCK): 39 ± 4 nM; SI (selectivity index) ([3]; CC50/EC50): 71; EC50 ([3]; Influenza A virus, H1N1, MDCK): 38 ± 5 nM; SI (selectivity index) ([4]; CC50/EC50): 129; EC50 ([4]; Influenza A virus, H3N2, MDCK): 21 ± 2 nM; SI (selectivity index) ([5]; CC50/EC50): 74; EC50 ([5]; Influenza A virus, H1N1|WSN, MDCK): 37 ± 2 nM; SI (selectivity index) ([6]; CC50/EC50): 49; EC50 ([6]; Influenza A virus, H1N1, MDCK): 56 ± 5 nM; SI (selectivity index) ([7]; CC50/EC50): 66; EC50 ([7]; Influenza A virus, H1N1, MDCK): 41 ± 5 nM
NC12CC3CC(CC(C3)C1)C2 [Amantadine, amantadine]	Amantadine Resistant Oseltamivir Resistant	Amantadine Resistant Oseltamivir Resistant	Amantadine Resistant Oseltamivir Resistant	Amantadine Resistant Oseltamivir Sensitive	Amantadine Resistant Oseltamivir Sensitive	Amantadine Resistant Oseltamivir Sensitive	Amantadine Resistant Oseltamivir Resistant	
